Patent publication US7476687B2, “Substituted furo[2,3-g]indazoles for the treatment of glaucoma” (Alcon, Inc., priority 2003, dated 2009)
Structures can show the parent of a compound that is named as a salt.

What was measured:
5HT2A(rat) [1] = molecular target: T1, 5HT2A(rat) (Rattus norvegicus, UniProt P14842); experiment: 5HT2 Functional Assay: [Ca2+]i Mobilization (FLIPR, A7r5 cells); type: cell-based; parameters: endogenous in cells; host or cells: A7r5 rat vascular smooth muscle cells; conditions: for EC50: [Ca2+]i mobilization, rat vascular smooth muscle cells A7r5; for Emax: percentage of maximum 5-HT-induced response, A7r5 cells
Procedure: The receptor-mediated mobilization on intracellular calcium ([Ca^2+]i) was studied using the Fluorescence Imaging Plate Reader (FLIPR) instrument. Rat vascular smooth muscle cells, A7r5, were grown in a normal media of DMEM/10% FBS and 10 μg/mL gentamycin. Confluent cell monolayers were trypsinized, pelleted, and re-suspended in normal media. Cells were seeded in a 50 μL volume at a density of 20,000 cells/well in a black wall, 96-well tissue culture plate and grown for 2 days.
On the day of the experiment, one vial of FLIPR Calcium Assay Kit dye was re-suspended in 50 mL of a FLIPR buffer consisting of Hank's Balanced Salt Solution (HBSS), 20 mM HEPES, and 2.5 mM probenecid, pH 7.4. Cells were loaded with the calcium-sensitive dye by addition of an equal volume (50 μL) to each well of the 96-well plate and incubated with dye for 1 h at 23° C.
Compounds were diluted 1:50 in 20% DMSO/20% Ethanol. For “hit” screening, compounds were further diluted 1:10 in FLIPR buffer and tested at a final concentration of 10 μM.
The compound plate and cell plate were placed in the FLIPR instrument. At the beginning of an experimental run, a signal test was performed to check the basal fluorescence signal from the dye-loaded cells and the uniformity of the signal across the plate. The basal fluorescence was adjusted between 8000-12000 counts by modifying the exposure time, the camera F-stop, or the laser power. Instrument settings for a typical assay were the following: laser power 0.3-0.6 W, camera F-stop F/2, and exposure time 0.4 sec. An aliquot (25 μL) of the test compound was added to the existing 100 μL dye-loaded cells at a dispensing speed of 50 μL/sec. Fluorescence data were collected in real-time at 1.0 sec intervals for the first 60 secs and at 6.0 sec intervals for an additional 120 secs.

5HT2A(rat) [2] = molecular target: T1, 5HT2A(rat); experiment: 5-HT2 Receptor Binding Assay ([125I]DOI competition, cerebral cortex homogenates); parameters: Aliquots of post mortem rat or human cerebral cortex homogenates (400 μL) dispersed in 50 mM TrisHCl buffer; from tissue; host or cells: post mortem rat cerebral cortex homogenate; conditions: inhibition of [125I]DOI binding
Procedure: 5-HT2 Receptor Binding Assay
Aliquots of post mortem rat or human cerebral cortex homogenates (400 μL) dispersed in 50 mM TrisHCl buffer (pH 7.4) are incubated with [^125I]DOI (80 pM final) in the absence or presence of methiothepin (10 μM final) to define total and non-specific binding, respectively, in a total volume of 0.5 mL. The assay mixture is incubated for 1 hour at 23° C. in polypropylene tubes and the assays terminated by rapid vacuum filtration over Whatman GF/B glass fiber filters previously soaked in 0.3% polyethyleneimine using ice-cold buffer. Test compounds (at different concentrations) are substituted for methiothepin. Filter-bound radioactivity is determined by scintillation spectrometry on a beta counter. The data are analyzed using a non-linear, iterative curve-fitting computer program [Trends Pharmacol. Sci., 16, 413 (1995)] to determine the compound affinity parameter. The concentration of the compound needed to inhibit the [^125I]DOI binding by 50% of the maximum is termed the IC50 or Ki value.

T1 sequence (P14842 whole entry): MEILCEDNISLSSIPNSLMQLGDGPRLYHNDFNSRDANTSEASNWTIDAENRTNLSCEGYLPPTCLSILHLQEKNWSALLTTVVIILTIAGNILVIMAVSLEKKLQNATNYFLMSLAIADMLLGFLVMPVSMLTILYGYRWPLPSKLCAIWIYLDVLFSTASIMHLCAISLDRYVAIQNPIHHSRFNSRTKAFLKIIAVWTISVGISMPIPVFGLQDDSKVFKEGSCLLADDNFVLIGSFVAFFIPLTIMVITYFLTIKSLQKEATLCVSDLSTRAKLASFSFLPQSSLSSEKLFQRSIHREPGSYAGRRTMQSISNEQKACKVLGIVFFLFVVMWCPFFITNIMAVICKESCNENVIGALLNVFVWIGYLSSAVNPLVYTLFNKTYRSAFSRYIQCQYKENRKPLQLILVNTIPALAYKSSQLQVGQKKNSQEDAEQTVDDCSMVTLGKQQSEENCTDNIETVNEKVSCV

| SMILES | melting point [°C] | EC50 (5HT2A(rat) [1]) [µM] | Emax (5HT2A(rat) [1]) [%] | IC50 (5HT2A(rat) [2]) [µM] |
| --- | --- | --- | --- | --- |
| C[C@H](N)Cn1ncc2ccc3oc(C(N)=O)cc3c21 (as salt: fumarate) [Example 3, 1-((S)-2-Aminopropyl)-1H-furo[2,3-g]indazole-7-carboxylic acid amide] | 170 to 172 | – | – | – |
| COCCNC(=O)c1cc2c(ccc3cnn(C[C@H](C)N)c32)o1 (as salt: fumarate) [Example 8, 1-((S)-2-Aminopropyl)-1H-furo[2,3-g]indazole-7-carboxylic acid (2-methoxyethyl)-amide] | 75 to 76 | – | – | – |
| CC(O)CNC(=O)c1cc2c(ccc3cnn(C[C@H](C)N)c32)o1 (stereo partly drawn) (as salt: fumarate) [Example 9, 1-((S)-2-Aminopropyl)-1H-furo[2,3-g]indazole-7-carboxylic acid (2-hydroxypropyl)-amide] | 190 to 191 | – | – | – |
| C[C@H](N)Cn1ncc2ccc3oc(C(=O)NCC4(O)CC4)cc3c21 (as salt: fumarate) [Example 10, 1-((S)-2-Aminopropyl)-1H-furo[2,3-g]indazole-7-carboxylic acid (1-hydroxy-cyclopropylmethyl)-amide] | 77 to 79 | – | – | – |
| C[C@H](N)Cn1ncc2ccc3oc(C(=O)NCC(C)(C)CO)cc3c21 (as salt: fumarate) [Example 11, 1-((S)-2-Aminopropyl)-1H-furo[2,3-g]indazole-7-carboxylic acid (3-hydroxy-2,2-dimethyl-propyl)-amide] | 103 | – | – | – |
| CC(=O)NCCCNC(=O)c1cc2c(ccc3cnn(C[C@H](C)N)c32)o1 (as salt: fumarate) [Example 12, 1-((S)-2-Amino-propyl)-1H-furo[2,3-g]indazole-7-carboxylic acid (3-acetylaminopropyl)-amide] | 81 | – | – | – |
| C[C@H](N)Cn1ncc2ccc3oc(C(=O)NCCCN4CCCC4=O)cc3c21 (as salt: fumarate) [Example 13, 1-((S)-2-Aminopropyl)-1H-furo[2,3-g]indazole-7-carboxylic acid [3-(2-oxo-pyrrolidin-1-yl)-propyl]-amide] | 82 | – | – | – |
| Cc1ccc(CNC(=O)c2cc3c(ccc4cnn(C[C@H](C)N)c43)o2)o1 (as salt: fumarate) [Example 14, 1-((S)-2-Aminopropyl)-1H-furo[2,3-g]indazole-7-carboxylic acid (5-methyl-furan-2-ylmethyl)amide] | 118 to 120 | – | – | – |
| Cc1noc(-c2cc3c(ccc4cnn(C[C@H](C)N)c43)o2)n1 (as salt: fumarate) [Example 15, (S)-1-Methyl-2-[7-(3-methyl-1,2,4-oxadiazol-5-yl)-furo[2,3-g]indazol-1-yl]-ethylamine] | 187 to 189 | – | – | – |
| CCOC(=O)c1cc2c(ccc3cnn(C[C@H](C)N)c32)o1.O=C(O)/C=C/C(=O)O [Example 1, 1-((S)-2-Aminopropyl)-1H-furo[2,3-g]indazole-7-carboxylic acid ethyl ester fumarate] | 184 to 185 | 0.063 | 101 | 0.00021 |
| C[C@H](N)Cn1ncc2ccc3oc(CO)cc3c21 [Example 2, [1-((S)-2-Aminopropyl)-1H-furo[2,3-g]indazol-7-yl]-methanol] | 110 to 112 | 0.018 | 86 | 0.00053 |
| C[C@H](N)Cn1ncc2ccc3oc(C(=O)NCCO)cc3c21 [Example 5, 1-((S)-2-Aminopropyl)-1H-furo[2,3-g]indazole-7-carboxylic acid (2-hydroxyethyl)-amide fumarate] | – | 0.055 | 94 | 0.0035 |
| C[C@H](N)Cn1ncc2ccc3oc(C(=O)NCCc4cnc[nH]4)cc3c21.O=C(O)/C=C/C(=O)O [Example 6, 1-((S)-2-Aminopropyl)-1H-furo[2,3-g]indazole-7-carboxylic acid [2-(3H-imidazol-4-yl)-ethyl]-amide fumarate] | 201 to 203 | 0.057 | 95 | 0.00066 |
| C[C@H](N)Cn1ncc2ccc3oc(C(=O)NCCN4CCOCC4)cc3c21 [Example 7, 1-((S)-2-Aminopropyl)-1H-furo[2,3-g]indazole-7-carboxylic acid (2-morpholin-4-yl-ethyl)-amide] | – | 0.109 | 89 | 0.0013 |
| COCCNC(=O)c1cc2c(ccc3cnn(C[C@H](C)N)c32)o1 [Example 8, 1-((S)-2-Aminopropyl)-1H-furo[2,3-g]indazole-7-carboxylic acid (2-methoxyethyl)-amide] | – | 0.054 | 94 | 0.0023 |
| CC(O)CNC(=O)c1cc2c(ccc3cnn(C[C@H](C)N)c32)o1 (stereo partly drawn) [Example 9, 1-((S)-2-Aminopropyl)-1H-furo[2,3-g]indazole-7-carboxylic acid (2-hydroxypropyl)-amide] | – | 0.027 | 98 | 0.0015 |
| C[C@H](N)Cn1ncc2ccc3oc(C(=O)NCC4(O)CC4)cc3c21 [Example 10, 1-((S)-2-Aminopropyl)-1H-furo[2,3-g]indazole-7-carboxylic acid (1-hydroxy-cyclopropylmethyl)-amide] | – | 0.015 | 94 | 0.0011 |
| CC(=O)NCCCNC(=O)c1cc2c(ccc3cnn(C[C@H](C)N)c32)o1 [Example 12, 1-((S)-2-Amino-propyl)-1H-furo[2,3-g]indazole-7-carboxylic acid (3-acetylaminopropyl)-amide] | – | 0.037 | 95 | 0.0014 |
| C[C@H](N)Cn1ncc2ccc3oc(C(=O)NCCCN4CCCC4=O)cc3c21 [Example 13, 1-((S)-2-Aminopropyl)-1H-furo[2,3-g]indazole-7-carboxylic acid [3-(2-oxo-pyrrolidin-1-yl)-propyl]-amide] | – | 0.072 | 87 | 0.002 |
| Cc1ccc(CNC(=O)c2cc3c(ccc4cnn(C[C@H](C)N)c43)o2)o1 [Example 14, 1-((S)-2-Aminopropyl)-1H-furo[2,3-g]indazole-7-carboxylic acid (5-methyl-furan-2-ylmethyl)amide] | – | 0.181 | 94 | 0.0003 |
| Cc1noc(-c2cc3c(ccc4cnn(C[C@H](C)N)c43)o2)n1 [Example 15, (S)-1-Methyl-2-[7-(3-methyl-1,2,4-oxadiazol-5-yl)-furo[2,3-g]indazol-1-yl]-ethylamine] | – | 0.283 | 101 | 0.0009 |
| CNC(=O)Cc1cc2c(ccc3cnn(C[C@H](C)N)c32)o1 [Example 16, 2-[1-((S)-2-Amino-propyl)-1H-furo[2,3-g]indazol-7-yl]-N-methyl-acetamide] | – | 0.028 | 97 | 0.0007 |
| C[C@H](N)Cn1ncc2ccc3oc(CNC(=O)c4cccnc4)cc3c21 [Example 17] | – | 0.022 | 95 | 0.003 |
| CCNC(=O)NCc1cc2c(ccc3cnn(C[C@H](C)N)c32)o1 [Example 18, 1-[1-((S)-2-Aminopropyl)-1H-furo[2,3-g]indazol-7-ylmethyl]-3-ethylurea] | – | 0.023 | 87 | 0.0041 |
| CC(=O)Nc1ccc(S(=O)(=O)NCc2cc3c(ccc4cnn(C[C@H](C)N)c43)o2)cc1 [Example 19, N-(4-{[1-((S)-2-Aminopropyl)-1H-furo[2,3-g]indazol-7-ylmethyl]-sulfamoyl}-phenyl)-acetamide] | 80 to 85 | 0.131 | 82 | 0.0041 |
| C[C@H](N)Cn1ncc2ccc3oc(CN4CCN(c5ccccn5)CC4)cc3c21 [Example 20, (S)-1-Methyl-2-[7-(4-pyridin-2-yl-piperazin-1-ylmethyl)-furo[2,3-g]indazol-1-yl]-ethylamine] | – | 0.141 | 81 | – |
